Measurements taken from patent publication US20220079966A1, “HYALURONAN SYNTHESIS INHIBITION FOR TREATING AUTOIMMUNE, INFLAMMATORY, FIBROTIC, OR PROLIFERATIVE DISEASES OR DISORDERS” (The Board of Trustees of the Leland Stanford Junior …, priority 2018, published 2022).

Tests used:
B16F10 cells [1] = experiment: 4-MU fluorescence of treated B16F10 cells by flow cytometry, pre- and post-permeabilization; assay type: in vitro ADME, murine
Method: Fluorescent values of 4-MUG were normalized to the 4-MU fluorescence. Referring to FIG. 2 B, 4-MU or 4-MUG was added to PBS with 10% FCS and the increase of fluorescence signal using a fluorescence plate reader was monitored at intervals up to 72 hours. […] B16F10 cells were cultured in DMEM and were treated with different concentrations of 4-MU and 4-MUG (30, 100, 300 μM) for 24 and 48 hours. Cultured cells were lysed and analyzed for HA concentration determination using an HA ELISA. HA staining in B16F10 cells placed in 96 well plates were imaged using fluorescence microscopy. To measure 4-MU florescence intensity in B16F10 cells treated with 4-MU and 4-MUG, B16F10 cells were trypsinized and 4-MU fluorescence associated with the cells was analyzed by flow cytometry in the Pacific Blue channel using a BD™ LSRII flow cytometer. For permeabilization, after trypsinization, cells were incubated in methanol at −20° C. for 20 min and washed once before flow cytometric analysis.

Min6 cells = experiment: HA synthesis inhibition in Min6 insulinoma cells; assay type: cell-based; conditions: insulinoma cell line
Method: (§1) Samples were thawed and assayed for HA levels using a modified HA ELISA as previously described (Nagy N., et al., J. Clin. Invest. 2015; 125(10):3928-3940). Each sample was analyzed in triplicate with a mean value obtained per sample. For cell normalization, LI-COR CellTag™ 700 Stain was used according to the manufactures protocol.

B16F10 cells [2] = experiment: HA production and HA staining by B16F10 melanoma cells (HA ELISA, HABP staining); assay type: cell-based, murine; conditions: for HA production (HA synthesis inhibition) by B16F10 cells: 48 hours of drug exposure, 30, 100, 300 μM, HA ELISA; for HA staining of B16F10 cells with HA binding protein (HABP): fluorescent staining
Method: To test this, murine melanoma cells (B16F10), a cell line known to produce abundant HA, were used. […] FIGS. 4D and 4E show HA production by B16F10 cells cultured for 48 hours in 4-MU (FIG. 1D) or 4-MUG (FIG. 1E). […] Data represent mean±SEM; *, p<0.05 by unpaired t test. Similar findings were seen as well in primary lymphocytes.
B16F10 cells were cultured in DMEM and were treated with different concentrations of 4-MU and 4-MUG (30, 100, 300 μM) for 24 and 48 hours. Cultured cells were lysed and analyzed for HA concentration determination using an HA ELISA. HA staining in B16F10 cells placed in 96 well plates were imaged using fluorescence microscopy. To measure 4-MU florescence intensity in B16F10 cells treated with 4-MU and 4-MUG, B16F10 cells were trypsinized and 4-MU fluorescence associated with the cells was analyzed by flow cytometry in the Pacific Blue channel using a BD™ LSRII flow cytometer. For permeabilization, after trypsinization, cells were incubated in methanol at −20° C. for 20 min and washed once before flow cytometric analysis.
as §1

[3] = system: Foxp3+ regulatory T-cells; experiment: Splenocyte regulatory T-cell analysis in wild type mice treated i.p. for 14 days; assay type: in vivo; conditions: 4-MU 0.5 mg i.p. or 4-MUG 1 mg i.p. daily for 14 days; for Foxp3+ amongst CD3+/CD4+ cells in splenocytes: flow cytometry
Method: The 4-MU (Alfa Aesar) was pressed into mouse chow (TestDiet, St. Louis, Mo.) and irradiated before shipment, as previously described (Nagy N., et al., Circulation. 2010; 122(22):2313-2322). This chow formulation delivers 250 mg/mouse/day, yielding a serum drug concentration of 640.3±17.2 nmol/L in mice, as measured by HPLC-MS. 4-MUG (ChemImpex, Wood Dale, Ill.) was distributed in the drinking water at a concentration of 2 mg/ml, delivering 10 mg/mouse/day, yielding a serum drug concentration of 357.1±72.6 ng/mL in mice, as measured by LC-MS/MS. Mice were initiated on 4-MU and 4-MUG at five, eight or twelve weeks of age, unless otherwise noted, and were maintained on this diet until they were euthanized, unless otherwise noted. For analysis of Foxp3+ regulatory T-cell numbers in naïve mice, mice were treated daily with 0.5 mg of 4-MU or 1.0 mg 4-MUG in 200 μl 0.08% carboxymethylcellulose in saline by intra-peritoneal injection.
Spleens were extracted from mice and cells were harvested by homogenization through a 70 μm cell strainer. Red blood cells were lysed using ACK buffer, after which the splenocyte suspensions were stained according to the protocol described above with the following fluorochrome-conjugated antibodies. V500-CD3 (500A2), BV785-CD4 (RM4-5) and A1488-Foxp3 (FJK-16s). Flow cytometry was performed on an LSRII and data analysis was done using FlowJo (Treestar).

CTLL2 cells = experiment: HA synthesis inhibition in CTLL2 lymphoma cells; assay type: cell-based; conditions: lymphoma cell line
Method: as §1

Row | SMILES | time after which treated B16F10 cells became fluorescent (B16F10 cells [1]; incubated 24, 48 or 72 hours, flow cytometry) [h] | HA synthesis inhibition in Min6 cells (Min6 cells) | HA production (HA synthesis inhibition) by B16F10 cells (B16F10 cells [2]) | HA staining of B16F10 cells with HA binding protein (HABP) (B16F10 cells [2]) | CD4+ and CD3+ T-cell numbers in splenocytes [3] | Foxp3+ MFI amongst CD3+/CD4+ cells in splenocytes [3] | Foxp3+ amongst CD3+/CD4+ cells in splenocytes [3] | HA synthesis inhibition in CTLL2 cells (CTLL2 cells) | fluorescence of treated B16F10 cells upon permeabilization (B16F10 cells [1])
1 | Cc1cc(=O)oc2cc(O[C@@H]3O[C@H](C(=O)O)[C@@H](O)[C@H](O)[C@H]3O)ccc12 [4-MUG, 4-methylumbelliferone-glucuronide] | 48 to 72 | inhibited HA synthesis | concentration dependent inhibition of HA synthesis | reduced HA | not affected | increase in their expression of Foxp3 | increase of Foxp3+ regulatory T-cells | inhibited HA synthesis | 
2 | Cc1cc(=O)oc2cc(O)ccc12 [4-MU, 4-methylumbelliferone] |  | HA synthesis inhibition | concentration dependent inhibition of HA synthesis | reduced HA | not affected | increase in their expression of Foxp3 | increase of Foxp3+ regulatory T-cells | HA synthesis inhibition | lost upon permeabilization
